# From patent US20210000792A1, “METHODS FOR REDUCING OR PREVENTING CARDIOVASCULAR EVENTS IN PATIENTS WITH TYPE II DIABETES MELLITUS” (Janssen Pharmaceutica NV, priority 2017, published 2021)
# Tests used:
# [1] = test system: men and women with type 2 diabetes and history or high risk of cardiovascular disease; test: CANVAS Program: integrated CANVAS and CANVAS-R clinical trials, canagliflozin versus placebo; type: in vivo, human; settings: for Cardiovascular mortality, hazard ratio (95% confidence interval) / Total (all-cause) mortality, hazard ratio (95% confidence interval): full integrated dataset; for Primary outcome (cardiovascular mortality, nonfatal myocardial infarction, or nonfatal stroke), hazard ratio (95% confidence interval): canagliflozin vs placebo; for Primary outcome (cardiovascular mortality, nonfatal myocardial infarction, or nonfatal stroke), events per 1000 patient-years: integrated database of CANVAS and CANVAS-R
# From the text: (§1) Two clinical trials were completed to assess the cardiovascular safety and efficacy of canagliflozin, and how any potential benefits might balance against known risks. The complete protocols for said trials, name CANVAS and CANVAS-R, which protocols are each incorporated in their entirety herein, may be found on www.clinicaltrials.gov (more specifically at the following urls: https://clinicaltrials.gov/ct2/show/NCT01032629?term=canvas&rank=1 and https://clinicaltrials.gov/ct2/show/NCT01989754?term=canvas-r&rank=1, respectively).
# (§2) All potential participants completed a 2-week, single-blind, placebo run-in period. Randomization was done centrally through an interactive web response system using a computer-generated randomization schedule prepared by the study sponsor using randomly permuted blocks. Participants in CANVAS were randomly assigned in a 1:1:1 ratio to canagliflozin 300 mg, canagliflozin 100 mg, or matching placebo, and participants in CANVAS-R were randomly assigned in a 1:1 ratio to canagliflozin or matching placebo administered at an initial dose of 100 mg daily with optional up-titration to 300 mg from week 13. Participants and all study staff were masked to individual treatment allocations until the completion of the study. Use of other background therapy for glycemic management and other risk factor control was according to best practice instituted in line with local guidelines including Renin Angiotensin System (RAS) blockade.
# (§3) Post-randomization, face-to-face follow-up was scheduled for 3 visits in the first year and at 6-month intervals thereafter, with alternating telephone follow-up between face-to-face assessments. Every follow-up included inquiry about primary and secondary outcome events and serious adverse events. Urinary albumin:creatinine ratio was measured every 26 weeks in CANVAS-R, and at Week 12 and then annually in CANVAS. Serum creatinine measurement with estimation of glomerular filtration rate (eGFR) was performed at least every 26 weeks in both trials. Individuals that prematurely discontinued study treatment continued scheduled follow-up wherever possible, with extensive efforts made to obtain full outcome data for all during the final follow-up window that spanned November 2016 to February 2017.
# (§4) The primary outcome was a composite of cardiovascular mortality, nonfatal myocardial infarction, or nonfatal stroke. Secondary outcomes were total mortality; cardiovascular mortality; progression of albuminuria; and the composite of cardiovascular mortality and hospitalization for heart failure. Progression of albuminuria grade was defined as a more then 30% increase in albuminuria and a switch from either normoalbuminuria to microalbuminuria or macroalbuminuria, or from microalbuminuria to macroalbuminuria. In the event that sequential testing was not significant for all then remaining outcomes were scheduled for assessment as exploratory variables in the integrated dataset.
# (§5) Evaluation of total hospitalizations was also prespecified.
# (§6) All major cardiovascular events, renal outcomes and deaths, plus selected safety outcomes were ratified by Endpoint Adjudication Committees. Intermediate markers of cardiovascular risk and requirement for antihyperglycemic agents were assessed to help understand the observed effects on cardiovascular and renal outcomes. Analyses of safety were of adverse events coded using the latest version of the MedDRA Dictionary. For bone fracture, the primary prespecified analysis was for low-trauma fracture events but secondary analysis of all fractures was also done. Amputations were assessed overall but numbers of cases above and below the ankle were also reported.
# (§7) The primary hypothesis test was of noninferiority for the hazard ratio (HR) for the primary outcome at the margin of 1.3 for all canagliflozin versus placebo using the full integrated dataset and the intent to treat approach. […]
# [2] = test system: men and women with type 2 diabetes and history or high risk of cardiovascular disease; test: CANVAS clinical trial, canagliflozin 300 mg or 100 mg versus placebo; type: in vivo, human; settings: canagliflozin group
# From the text: as §1, §2, §3, §4, §5, §6, §7
# [3] = CANVAS Program, vs placebo, listed as canagliflozin
# [4] = CANVAS Program, canagliflozin group
# [5] = canagliflozin compared to placebo, combined trials n=10,142
# [6] = integrated CANVAS and CANVAS-R, canagliflozin group
# [7] = integrated database with removal of all study time and mortality events accrued prior to Nov. 20, 2012
# [8] = integrated database with removal of all study time and mortality events accrued prior to Nov. 20, 2012, vs placebo
compound,measurement,setting,value
"Cc1ccc([C@@H]2O[C@H](CO)[C@@H](O)[C@H](O)[C@H]2O)cc1Cc1ccc(-c2ccc(F)cc2)s1 [Canagliflozin, canagliflozin]","Cardiovascular mortality, hazard ratio (95% confidence interval)","[1]; CANVAS Program, vs placebo",0.87 (0.72-1.06)
same,"Total (all-cause) mortality, hazard ratio (95% confidence interval)","[1]; CANVAS Program, vs placebo",0.87 (0.74-1.01)
same,"Cardiovascular mortality, hazard ratio (95% confidence interval)",[1]; [3],0.87
same,"Total (all-cause) mortality, hazard ratio (95% confidence interval)",[1]; [3],0.87
same,"40% reduction in eGFR, RRT, or renal death, n/N",[1]; [4],124/5795
same,"40% reduction in eGFR, RRT, renal death or macroalbuminuria, n/N",[1]; [4],404/5795
same,"40% reduction in eGFR, RRT, renal or CV death, n/N",[1]; [4],379/5795
same,"Cardiovascular mortality or hospitalization for heart failure, n/N",[1]; [4],364/5795
same,"Cardiovascular mortality, n/N",[1]; [4],268/5795
same,"Cardiovascular mortality, nonfatal myocardial infarction, or nonfatal stroke, n/N",[1]; [4],585/5795
same,"Hospitalization for heart failure, n/N",[1]; [4],123/5795
same,"Nonfatal myocardial infarction, n/N",[1]; [4],215/5795
same,"Nonfatal stroke, n/N",[1]; [4],158/5795
same,"Progression of albuminuria, n/N",[1]; [4],1341/5196
same,"Regression of albuminuria, n/N",[1]; [4],885/1679
same,"Total mortality, n/N",[1]; [4],400/5795
same,"Primary outcome (cardiovascular mortality, nonfatal myocardial infarction, or nonfatal stroke), hazard ratio (95% confidence interval)",[1]; CANVAS Program,0.86 (0.75-0.97)
same,"Primary outcome (cardiovascular mortality, nonfatal myocardial infarction, or nonfatal stroke), hazard ratio (95% confidence interval)","[1]; CANVAS Program, listed as canagliflozin",0.86
same,"40% reduction in eGFR, RRT, or renal death, hazard ratio (95% confidence interval)","[1]; CANVAS Program, vs placebo",0.60 (0.47-0.77)
same,"40% reduction in eGFR, RRT, renal death or macroalbuminuria, hazard ratio (95% confidence interval)","[1]; CANVAS Program, vs placebo",0.57 (0.50-0.66)
same,"40% reduction in eGFR, RRT, renal or CV death, hazard ratio (95% confidence interval)","[1]; CANVAS Program, vs placebo",0.77 (0.66-0.89)
same,"Cardiovascular mortality or hospitalization for heart failure, hazard ratio (95% confidence interval)","[1]; CANVAS Program, vs placebo",0.78 (0.67-0.91)
same,"Hospitalization for heart failure, hazard ratio (95% confidence interval)","[1]; CANVAS Program, vs placebo",0.67 (0.52-0.87)
same,"Nonfatal myocardial infarction, hazard ratio (95% confidence interval)","[1]; CANVAS Program, vs placebo",0.85 (0.69-1.05)
same,"Nonfatal stroke, hazard ratio (95% confidence interval)","[1]; CANVAS Program, vs placebo",0.90 (0.71-1.15)
same,"Progression of albuminuria, hazard ratio (95% confidence interval)","[1]; CANVAS Program, vs placebo",0.73 (0.67-0.79)
same,"Regression of albuminuria, hazard ratio (95% confidence interval)","[1]; CANVAS Program, vs placebo",1.70 (1.51-1.91)
same,"40% reduction in eGFR, RRT, or renal death, hazard ratio (95% confidence interval)",[1]; [3],0.60
same,"Progression of albuminuria, hazard ratio (95% confidence interval)",[1]; [3],0.73
same,"Use of other antihyperglycemic agents during follow-up, lower than placebo group",[1]; canagliflozin compared to placebo group,9.3%
same,Mean difference in body weight,[1]; [5],-1.60 kg
same,Mean difference in glycated hemoglobin,[1]; [5],−0.58%
same,Mean difference in systolic blood pressure,[1]; [5],−3.93 mmHg
same,"Composite of sustained 40% reduction in eGFR, end-stage kidney disease or renal death, events per 1000 patient-years",[1]; [6],5.5 /1000 patient-years
same,"Progression of albuminuria grade, events per 1000 patient-years",[1]; [6],89.4 /1000 patient-years
same,"Primary outcome (cardiovascular mortality, nonfatal myocardial infarction, or nonfatal stroke), events per 1000 patient-years",[1]; canagliflozin group,26.93 per 1000 patient-years
same,"Primary outcome (cardiovascular mortality, nonfatal myocardial infarction, or nonfatal stroke), events per 1000 patient-years","[1]; canagliflozin group, listed as canagliflozin",26.9 per 1000 patient-years
same,"All-cause mortality, events per 1000 patient-years",[1]; [7],19.05 per 1000 patient-years
same,"Cardiovascular death, events per 1000 patient-years",[1]; [7],12.82 per 1000 patient-years
same,"All-cause mortality, hazard ratio (95% confidence interval)",[1]; [8],0.90 (0.76-1.07)
same,"Cardiovascular death, hazard ratio (95% confidence interval)",[1]; [8],0.96 (0.77-1.18)
same,Primary outcome hazard ratio when imputation for missing events was performed,"[1]; multiple imputation for missing data, vs placebo",0.85
same,"40% reduction in eGFR, RRT, or renal death, n/N",[2],91/2888
same,"40% reduction in eGFR, RRT, renal death or macroalbuminuria, n/N",[2],292/2888
same,"40% reduction in eGFR, RRT, renal or CV death, n/N",[2],286/2888
same,"Cardiovascular mortality or hospitalization for heart failure, n/N",[2],269/2888
same,"Cardiovascular mortality, n/N",[2],207/2888
